Results reported in patent US9113641B2, “Probiotic bacteria and regulation of fat storage” (Arla Foods amba, priority 2007, dated 2015).

What was measured:
Type in all cases: cell-based, human
[1] = tested on: FIAF expression in HCT116 cells; test: FIAF expression in HCT116 cells by real time PCR after stimulation with bacteria, media or compounds; conditions: concentration curve, 100 μM CLA for 6 h and 24 h
Description: (§1) The human colorectal adenocarcinoma cell lines HCT116 (CCL-247, deposit at ATCC), LoVo (CCL-229, deposit ATCC), HT29 (HTB-38, deposit ATCC) and SW480 (CCL-228, deposit ATCC) were grown and maintained according to supplier's recommendations.
Strain F19 was always pre-cultured for 6-8 h at 37° C. on a rotating platform (225 rpm). Pre-cultures were then added to pre-warmed deMan Rogosa Sharpe (MRS) medium (dilution 1:20). The cultures were cultivated overnight prior to use. Bacterial concentration at OD600nm was determined: 1 OD600nm=1×10^8 F19/ml. The required amount of F19 was resuspended in an appropriate volume of the respective pre-warmed medium without antibiotics.
Co-culture was prepared by washing the colonic cells with warm PBS. Cells were incubated with 2×10^7/ml of F19 or with medium alone. The experiment was terminated by thoroughly washing the plates with ice-cold PBS.
As a control, F19 was heat-inactivated by incubating at 80° C. for 30 minutes. […]
RNA was prepared using the Qiagen RNeasy Mini Kit following the manufacturer's protocol and cDNA was synthesised using the cDNA synthesis kit from Invitrogen according to protocol. Semi-quantitative, SYBR Green based (Applied Biosystems) real time PCR was used to detect transcripts. […] The mRNA levels of each sample were determined in triplicates. […]

[2] = tested on: Adipose differentiation-related protein (ADRP); test: Expression of PPARγ target gene ADRP in HCT116 cells (real time PCR); conditions: 100 μM CLA for 24 h
Description: as §1
(§2) Conjugated linoleic acid (CLA; 94594) was purchased as a trans-10, cis-12 mix from Sigma. PPARγ and PPARα ligands Troglitazone (5 μM) and WY-14643 (100 μM) were products from Cayman.
(§3) RNA was prepared using the Qiagen RNeasy Mini Kit following the manufacturer's protocol and cDNA was synthesised using the cDNA synthesis kit from Invitrogen according to protocol. Semi-quantitative, SYBR Green based (Applied Biosystems) real time PCR was used to detect transcripts. Forward and reverse primers were mixed at equal concentration and used at a final concentration of 0.2 μM. ADRP Fw: 5′-[…]-3′ (SEQ ID NO:1), Rv: 5′-[…]-3′ (SEQ ID NO:2); Beta-actin Fw: 5′-CCTGGCACCCAGCACAAT-3′ (SEQ ID NO:3), Rv: 5′-[…]-3′ (SEQ ID NO:4); FIAF Fw: 5′-AAAGAGGCTGCCCGAGAT-3′ (SEQ ID NO:5), Rv: 5′-TCTCCCCAACCTGGAACA-3′ (SEQ ID NO:6); ME Fw: 5′-[…]-3′ (SEQ ID NO:7), Rv: 5′-[…]-3′ (SEQ ID NO:8). Each experiment was carried out in sample duplicates. The mRNA levels of each sample were determined in triplicates. Real time PCR was performed using the ABI 7500 System for data acquisition and analysis by using the ABI 7500 System Sequence Detection software. […]

malic enzyme (ME) = test: Expression of PPARα target gene ME in HCT116 cells (real time PCR); conditions: 100 μM CLA for 24 h
Description: as §1, §2, §3

[3] = tested on: FIAF expression in HT29 cells, PPARγ incapacitated by siRNA; test: FIAF expression in HT29 cells with PPARγ siRNA
Description: as §1
RNA was prepared using the Qiagen RNeasy Mini Kit following the manufacturer's protocol and cDNA was synthesised using the cDNA synthesis kit from Invitrogen according to protocol. Semi-quantitative, SYBR Green based (Applied Biosystems) real time PCR was used to detect transcripts. Forward and reverse primers were mixed at equal concentration and used at a final concentration of 0.2 μM. ADRP Fw: 5′-[…]-3′ (SEQ ID NO:1), Rv: 5′-[…]-3′ (SEQ ID NO:2); Beta-actin Fw: 5′-CCTGGCACCCAGCACAAT-3′ (SEQ ID NO:3), Rv: 5′-[…]-3′ (SEQ ID NO:4); FIAF Fw: 5′-AAAGAGGCTGCCCGAGAT-3′ (SEQ ID NO:5), Rv: 5′-TCTCCCCAACCTGGAACA-3′ (SEQ ID NO:6); ME Fw: 5′-[…]-3′ (SEQ ID NO:7), Rv: 5′-[…]-3′ (SEQ ID NO:8). Each experiment was carried out in sample duplicates. The mRNA levels of each sample were determined in triplicates. Real time PCR was performed using the ABI 7500 System for data acquisition and analysis by using the ABI 7500 System Sequence Detection software. Data is presented as mean values with standard errors.
Elimination of PPAR transcripts from HT29 cells was accomplished by Dharmacons readymade siRNA products (SMARTpool Human PPARG). […]

Conjugated linoleic acid [CLA]
FIAF expression induced by CLA, dose and time dependence [1]: upregulate FIAF expression in a dose and time dependent manner
Expression of PPARγ target gene ADRP [2]: increased expression
Expression of PPARα target gene ME (malic enzyme (ME)): increased expression
FIAF expression when PPARγ is incapacitated by siRNA [3]: no longer enhanced
